What was measured:
in vivo = test: in vivo
Experimental: A saline solution (0.9% NaCl) was added to a mixture of cinnamaldehyde (density = 1.05 g/mL) and Cremophor® RH 40 (1:1 v/v) in order to obtain a 12.5 mg/mL cinnamaldehyde emulsion in the presence of ethanol (10% of final volume). A group (n = 4) of male Wistar rats (200–250 g) fasted for 24 h was anesthetized during the experimental period and received 0.4 mL via a femoral intravenous infusion (rate = 0.2 mL/min; 2 min) of 12.5 mg/mL cinnamaldehyde emulsion (20 mg/kg cinnamaldehyde dose).
At the end of the infusions and at fixed time points, CSF samples (50 μL) were withdrawn and blood samples (100 μL) were collected. The CSF was withdrawn using the cisternal puncture method described by van den Berg et al., which requires a single needle stick and allows the collection of serials (40–50 μL) CSF samples that are virtually blood-free. A total volume of about a maximum of 150 μL of CSF/rat (i.e., three 50 μL samples/rat) was collected during the experimental session, choosing the time points (n = 3–5, taking into account a maximum of three collections per rat) in order to allow the restoring of the CSF physiological volume.
The samples were centrifuged at 12,500× g for 5 min, then about 300 μL of supernatant were withdrawn and further centrifuged. […] As a control, a blood sample (100 μL) was collected by each rat before the administrations of the drugs. The control samples were immediately added to 300 μL of ice-cold CH3CN in the absence of internal standard, then treated as described above.
For cinnamaldehyde analysis the blood samples were hemolyzed immediately after their collection with 500 μL of ice-cold water, and then 50 μL of 10% sulfosalicylic acid and 50 μL of internal standard (100 μM carbazole dissolved in a water-methanol mixture 50:50 v/v) was added. The samples were extracted twice with 1 mL of water-saturated ethyl acetate, and, after centrifugation at 12,500× g for 10 min, the organic layer was reduced to dryness under a mild nitrogen stream at room temperature. Then, 200 μL of a water-acetonitrile mixture (50:50 v/v) were added, and after centrifugation, 10 μL were analyzed via HPLC (see below) for cinnamaldehyde detection. As a control, a blood sample (100 μL) was collected by each rat before the administration of the drug. The control samples were treated as described above in the absence of internal standard.
In particular, all the AUC values referred to the bloodstream were calculated by the trapezoidal method within the last time point detected, and the remaining area was obtained as the ratio between the compound concentration detected at the last time point and the elimination constant (kel), which was obtained from the slope of the semilogarithmic plots (−slope × 2.3). The clearance (Cl) and distribution volume (Vd) values were calculated according to the non-compartmental model as the ratios “dose/AUC” and “Cl/kel”, respectively, where kel is the elimination constant obtained by the slope of semilogarithmic plot.
The chromatographic apparatus consisted of a modular system (model LC-10 AD VD pump and model SPD-10A VP variable wavelength UV−vis detector; Shimadzu, Kyoto, Japan) and an injection valve with 20 μL sample loop (model 7725; Rheodyne, IDEX, Torrance, CA, USA). Separations were performed at room temperature on a 5 μm Hypersil BDS C-18 column (150 mm × 4.6 mm i.d.; Alltech Italia Srl, Milan, Italy) equipped with a guard column packed with the same Hypersil material. The volume injection was 10 μL. Data acquisition and processing were performed on a personal computer using CLASS-VP Software, version 7.2.1 (Shimadzu Italia, Milan, Italy).
The detector was set at 205 nm.

PC12 cells = test: Dopamine release from neuronal differentiated PC12 cells (ELISA); format: cell-based, rat
Experimental: PC12 cell line (RRID:CVCL_0481), derived from rat adrenal gland pheochromocytoma, was a kind gift from Dr Federica Brugnoli from the Department of Translational Medicine, University of Ferrara, Ferrara (Italy). The cells were grown in RPMI-1640 (HiGlutaXL) medium (Microtech, Naples, Italy), supplemented with 100 µg/mL streptomycin and 100 IU/mL penicillin, 10% horse serum (HS), and 5% fetal bovine serum (FBS). PC12 cells were gently removed from the 4 µg/cm^2 collagen IV-coated flask with a rubber scraper, transferred as cell suspension into a Falcon tube and resuspended through a sterile tip to avoid any clumping, then split into separate flasks twice weekly. To differentiate neuronal phenotypes, PC12 cells were seeded in 4 µg/cm^2 collagen IV-coated 12-well plates at a density of 5000 cells/well, and they were then left to adhere to the well for 24 h. […] All the proliferative and differentiated cultures were maintained at 37 °C in a humidified 5% CO2 atmosphere.
PC12 cells differentiated to neuronal-like phenotype in collagen IV-treated 12-well plates, were first synchronized all to the same circadian phase and cell cycle by a serum shock (50% HS and 50% DMEM HiGlutaXL) for 2 h at 37 °C [49] to achieve a synchronous release of dopamine. Synchronization medium was then aspirated off, cells were washed with 3 × 1 mL and equilibrated for 15 min at 37 °C in 1 mL of Krebs Ringer HEPES (KRH) physiological buffer, following the recipe of Mount et al. (25 mM HEPES/Tris, pH 7.4, 1.2 mM KH2PO4, 125 mM NaCl, 4.8 mM KCl, 1.2 mM MgSO4, 2.2 mM CaCl2, 5.6 mM glucose, 1.0 mM ascorbic acid, 10 µM pargyline, 1.0 µM nomifensine). […] To remove cell debris, all samples of 1 mL incubation KRH at the end of treatments were centrifuged at 1000× g for 20 min at 4 °C and stored at −20 °C until dopamine levels were determined by ELISA assay.
Dopamine levels in 1 mL incubation KRH buffer were detected by means of an ELISA assay, based on the […] ELISA principle for detection of dopamine, following manufacturer’s instructions (IBL International, Hamburg, Germany–catalog no: RE59161; purchased from Tecan Italia S.r.I, Milan, Italy). After the substrate reaction, the intensity of the developed color was proportional to the amount of dopamine, detected at 450 nm using a microplate reader spectrophotometer (Sunrise® Microplate Reader, Tecan Trading AG, Männedorf, Switzerland). Results of samples were determined directly using the standard curve. Results are presented as mean ± SE values of four independent experiments. Data were plotted and analyzed with GraphPad software (Prism, version 7.0, San Diego, CA, USA).

[1] = male, Wistar, rat, in vivo, iv, 20 mg/kg

Question: Which results are given for `C=CCc1ccc(O)c(OC)c1` [Eugenol]?
Answer: Vd (in vivo; male, Wistar, rat, in vivo, iv): 3.21 ± 0.247 L/kg; clearance (in vivo; male, Wistar, rat, in vivo, iv): 114 ± 2 mL/min/kg; half-life (in vivo; male, Wistar, rat, in vivo, iv): 19.4 ± 2.1 min; concentration at 5 min (in vivo; [1]): 3600 ± 200 ng/mL; concentration at 10 min (in vivo; [1]): 2900 ± 100 ng/mL; k el (in vivo; male, Wistar, rat, in vivo, iv, kel: pseudo first order kinetic elimination rate constant, rat blood, iv 20 mg/kg (eugenol, cinnamaldehyde), 100 mg/kg (D-limonene), eugenol value terminal): 0.0006 s⁻¹; C0: concentration in the bloodstream at the end of infusion (in vivo; rat blood, iv infusion 2 min, 20 mg/kg eugenol and cinnamaldehyde, 100 mg/kg D-limonene, mean ± SE, n = 4): 16500 ± 200 ng/mL; effect on dopamine release over pre-treatment baseline (PC12 cells; 25 µM, 5, 15, 30, 60 and 120 min, baseline 393 ± 12 pg/mL, p < 0.001 at 5, 15, 120 min, p < 0.05 at 30, 60 min): statistically significant increase; incubation time with the higher effect on dopamine release (PC12 cells; 25 µM, time course 5, 15, 30, 60, 120 min, U-shaped curve): 120 min; concentration giving the lower effect on dopamine release, still significant vs. basal (PC12 cells; 0.5, 1, 2, 5 and 25 µM for 5 min, basal release 947 ± 102 pg/mL): 5 µM
